The record followed here is patent US10988434B2, “Fragrance mixture” (SYMRISE AG, priority 2016, dated 2021).

Molecules are shown by their SMILES.

The data set can be described thus: Storage stability under drastic conditions. Format: physicochemical. Conditions: 60° C. and 5 bar pressure. As to the method:
Example 15: Stability Studies
Mesaconic acid diethyl ester (MSDEE) was stored alone and as a component of various formulations for 24 and 72 hours respectively under drastic conditions at 60° C. and 5 bar pressure. The remaining amount of active substance was then determined.

For the molecule `CCOC(=O)/C=C(\C)C(=O)OCC` [Mesaconic acid diethyl ester, (E)-2-methyl-but-2-endicarboxylic acid diethyl ester], the “Storage stability: remaining amount of active substance (MSDEE) After 24 h” value (24 h) turned out to be 98%. Further, the “Storage stability: remaining amount of active substance (MSDEE) After 72 h” value (72 h) is 98%.
